Patent US20220241314A1, “COMPOSITIONS AND METHODS FOR TREATMENT OF HEPATITIS B VIRUS INFECTION” (priority 2019, published 2022)
{ppp} = triphosphate

Assays:
HBV = HBV replication infection/treatment time course over 20 dpi; type: cell-based, HBV (Genotype D); conditions: HepG2-hNTCP; for production of pgRNA (RT-qPCR): 6 dpi to 20 dpi; for capsid-associated intracellular HBV DNA (RC, DL, SS DNA), Southern blot: 6 to 20 dpi; for production of cccDNA over time course: F7 10 μM or poly-U/UC PAMP 100 ng/ml from 24 hours after infection, within 2 dpi; for extracellular HBV DNA (qPCR) / secreted HBsAg in culture supernatant (ELISA): infection/treatment time course
Description: FIGS. 9A-9E illustrate kinetics of HBV replication in parallel cultures of cells during treatment with F7 or poly-U/UC PAMP. (9A) HepG2-hNTCP cells were infected with HBV at a moi of 1000 Geq/cell. After 24 hours the cells were treated with F7 (10 μM) (upper), or 100 ng/ml X RNA or 100 ng/ml poly-U/UC PAMP (lower). Cells were harvested at each time point, Hirt supernatants prepared and subjected to Southern blot analysis. (B) HBV pgRNA was analyzed by RT-qPCR. Values from 20 Dpi of ‘HBV only’ was set to 100% for RT-PCR analysis. Data was presented as mean±standard deviations (SD), ***P<0.001, ****P 21 0.0001; and ns=non-significant (9C) HBV intracellular capsid-associated DNA from cells treated with 10 uM F7 (upper) or 100 ng/ml XRNA or poly-U/UC PAMP (lower) was analyzed by Southern blot. (9D) Secreted HBsAg from HBV-infected cells treated with F7 (upper) or poly-U/UC (lower) was detected by ELISA. (9E) Extracellular HBV-DNA was measured by qPCR from cells treated with 10 uM (left) or 100 ng/ml XRNA or poly-U/UC PAMP (right). Data are presented as mean±standard deviation (SD) from three independent experiments. ***P 0.0002.
To further determine how the activation of IRF3 impacts the HBV replication cycle, the expression of viral DNA, viral RNA, extracellular HBV DNAs and secreted HBsAg were analyzed over an infection/treatment time course. […] The level of capsid-associated intracellular HBV DNA intermediates of reverse transcription produced over the HBV infection/treatment time course were also measured.
HBV infection HBV (Genotype D) was purified from the supernatant of HepAD38 cells by PEG concentration and subsequent sucrose gradient, as described previously (Ko, C., et al. (2014). DDX3 DEAD-Box RNA Helicase Is a Host Factor That Restricts Hepatitis B Virus Replication at the Transcriptional Level. Journal of Virology 88, 13689-13698; Watashi, K., et al. (2013), supra). For HBV infection cells were seeded into collagen-coated plates. One day later, the cells were infected with HBV in DMEM containing 4% polyethylene glycol 8000 (PEG-8000). The multiplicities of infection (expressed as virus genome equivalent/cell) are indicated in each Figure Legend. The inocula were removed 24 hours later, and the infected cultures were maintained in complete DMEM containing 2.5% DMSO until harvesting, as described previously (Ni, Y., et al. (2014). Hepatitis B and D viruses exploit sodium taurocholate co-transporting polypeptide for species-specific entry into hepatocytes. Gastroenterology 146, 1070-1083).
Reverse transcription quantitative real time qPCR (RT-qPCR) analysis: Total cellular RNAs were extracted from cells using TRIZOL reagent and the manufacturers protocol (Invitrogen). cDNA was synthesized from the purified RNA by both random and oligo (dT) priming using iScript select cDNA synthesis kit (Biorad, Inc.). For HBV cccDNA expression analysis, total DNA was extracted using the DNeasy kit (QIAGEN). For selective cccDNA PCR analysis, isolated DNAs were treated with 10 Units of T5 exonuclease (NEB) for 30 min in 10 μl of reaction volume in 37° C., followed by heat-inactivation at 95° C. for 5 min and 4-fold dilution with Nuclease-free water. For extra-cellular HBV DNA quantification, an external HBV plasmid standard was used to program the PCR (Ko, C., et al. (2018), supra). Relative mRNA levels of all target genes were quantified by RT-qPCR performed using the ΔΔCT method, and expression levels were normalized to house-keeping genes. Real-time PCR assays were carried out using the SYBR green method (Applied Biosystems) performed using an Applied Biosystems 7300 thermocycler. […]

in vitro = conditions: human
Description: HepG2-NTCP Cells (10A and 10C), dHepaRG (10B and 10D), and PHH (10E) were treated with increasing doses of F7 or poly-U/UC PAMP for 72 hours. Cell viability was determined concurrently by measuring ATP content, with values normalized to mock-treated cells. Graph represents the mean of triplicated samples in each of 3 independent experiments, with error bars showing standard deviation.ns=non-significant.
To determine the values of 90% of maximal Inhibitory concentration (IC90) and half-maximal Inhibitory concentration (IC50), as well as the cytotoxic concentration, CC50, of F7 and poly-U/UC, PAMP, two different cell lines were used, HepG2-hNTCP and dHepaRG cells.
Cytotoxicity assays: Cytotoxicity was evaluated from cultures of HepG2-C3A -hNTCP and dHepaRG cells using CellTiter-Glo as described (Edwards, T. C., et al. (2019). Inhibition of HBV replication by N-hydroxvisoquinolinedione and N-hydroxypyridinedinone ribonuclease H inhibitors. Antiviral research 164, 70-80). […] Cytotoxicity of each was measured with the ATP content as a measure of cell viability using the CellTiter-Glo™ reagent (Promega) per manufacturer's instructions. The plates were read using a luminescence plate reader (Berthold) and the relative luminescence unit (RLU) data generated from each well was calculated as percent signal compared to the untreated control. […]

| Molecule | production of pgRNA (RT-qPCR) (HBV) | capsid-associated intracellular HBV DNA (RC, DL, SS DNA), Southern blot (HBV) | production of cccDNA over time course (HBV) | extracellular HBV DNA (qPCR) (HBV) | secreted HBsAg in culture supernatant (ELISA) (HBV) | CC50 at 72 h (in vitro) [µM] |
| --- | --- | --- | --- | --- | --- | --- |
| O=C(Nc1ccc2nc(NC(=O)c3ccc4ccccc4c3)sc2c1)c1ccccc1 [F7, N-(6-benzamido-1,3-benzothiazol-2-yl)naphthalene-2-carboxamide] | significantly suppressed | markedly decreased the levels of these DNA species | markedly suppressed | reduction of extracellular HBV DNA | significant reduction in the level of secreted HBsAg | > 40 |
| poly-U/UC PAMP: ~100 nt PAMP motif from the HCV genome comprising 5′ppp and the poly U/UC region, recognized by RIG-I; formulated in liposome (nucleic acid, RNA, 5' {ppp}, backbone and methylation of C not given here; formulated in liposome, ~100 nt PAMP motif from the HCV genome comprising 5′ppp and the poly U/UC region, recognized by RIG-I; formulated in liposome) GGCCAUCCUGUUUUUUUCCCUUUUUUUUUUUCUUUUUUUUUUUUUUUUUUUUUUUUUUUUUUUUUUCUCCUUUUUUUUUCCUCUUUUUUUCCUUUUCUUUCCUUU | significantly suppressed | markedly decreased the levels of these DNA species | markedly suppressed | reduction of extracellular HBV DNA | significant reduction in the level of secreted HBsAg | – |
